# Results published in patent US20120152149A1, “USE OF 1,3-DIOLS AS BIOCIDES” (BASF SE, priority 2009, published 2012).
# Where two headings read alike, the source gives them in different places.
# Columns and labels:
# Type in all cases: cell-based
# E. coli NCIMB 8545 = experiment: Microstatic activity, MIC in tryptone soy broth; conditions: Escherichia coli, NCIMB8545, 30° C., 48 hours
# Protocol: (§1) For this, in each case a 40 percent strength by weight solution of a diol in propylene glycol was prepared at 60° C. This solution was diluted with a double-strength soy solution (double-strength tryptone soy broth) as nutrient medium in the volume ratio 1:1. Further dilution with soy solution produced solutions with the following concentrations: 400 000 ppm (40%), 200 000 ppm (20%), 100 000 ppm (10%), 50 000 ppm (5%), 25 000 ppm (2.5%), 12 500 ppm (1.25%), 6250 ppm (0.625%), 3125 ppm (0.3125%). Pure soy solution was used as negative control. The positive control used was a solution of 5 ml of soy solution which has been treated with 0.1 ml of the respective microorganism. The test solutions consisted of 5 ml of the above-described soy solutions of the diols in the particular concentration which have been mixed with 0.1 ml of the respective microorganism. The samples and controls were incubated in the case of the bacteria at 30° C. for 48 hours, and in the case of fungi over 5 days at 25° C. In each case, the MIC (Minimum Inhibitory Concentration) value was determined. This value indicates the minimum concentration above which the growth of the microorganisms was visibly hindered compared to the corresponding sample without addition of the diol. […] For example, this was evident from the occurrence of clouding or visible growth of the microorganism. […] The MIC value stated is a range between the next higher concentration of a positive test and the same and/or lower concentration of a first negative test.
# [1] = tested on: P. aeruginosa NCIMB 10421; experiment: Microstatic activity, MIC in tryptone soy broth; conditions: Pseudomonas aeruginosa, NCIMB10421, 30° C., 48 hours
# Protocol: as §1
# P. vulgaris NCIMB 4175 = experiment: Microstatic activity, MIC in tryptone soy broth; conditions: Proteus vulgaris, NCIMB4175, 30° C., 48 hours
# Protocol: as §1
# S. aureus NCIMB 9578 = experiment: Microstatic activity, MIC in tryptone soy broth; conditions: Staphylococcus aureus, NCIMB9578, 30° C., 48 hours
# Protocol: as §1
# [2] = tested on: series of tested microorganisms (bacteria and fungi); experiment: Microstatic activity, highest MIC from the series of tested microorganisms; conditions: highest measured MIC from the series of tested microorganisms
# Protocol: The following microorganisms were used;to test the biocidal effect against various bacteria and fungi: In each case, the MIC (Minimum Inhibitory Concentration) value was determined. This value indicates the minimum concentration above which the growth of the microorganisms was visibly hindered compared to the corresponding sample without addition of the diol. The MIC value stated is a range between the next higher concentration of a positive test and the same and/or lower concentration of a first negative test. In the last line of each of the tables below, a “maximum” value is listed. This value indicates the highest measured MIC value in each case from the series of tested microorganisms.
# A. niger ATCC 16404 [3] = experiment: Preservation stress test, example formulation 1 (standard emulsion O/W); conditions: 1% active substance
# Protocol: (§2) Preservation stress tests (PSTs) were carried out in order to determine the preserving activity of the diols. In the preservation stress test, this is simulated through artificial loadings with microorganisms. These can either be inoculated as mixed population or individually in mixtures independent of one another. The inoculated product samples are incubated under defined conditions and, after defined times, samples are taken in order to determine the germ loading. In the case of adequate preservation, the number of microorganisms should, depending on the type, either decrease or remain constant in order to satisfy the requirements specified, e.g. in Ph. Eur. 6.0. To investigate the preserving effect of the diols, application-typical amounts of the diols were incorporated into example formulations. […] [table] These example formulations were used to prepare various mixtures which each comprised 1% active substance or comprised water instead of the active substance as placebo mixtures. These mixtures were in each case inoculated with the test germs such that a germ loading of 10^5-10^6 CFU/g was present in the test mixture. The bacteria were either used individually for the inoculation or as a mixed culture. To determine the starting germ count, immediately after inoculation, an aliquot was taken, diluted in dilution medium (phosphate buffer, 0.07 molar pH 7.4 (+/−0.2), with 1% Tween 80+0.3% soya lecithin), and the surviving germ count was determined in the dilution stages 10^−1 to 10^−3. The inoculated product samples then incubated for a total of 28 d at 20-25° C. After 2 d, 7 d, 14 d and after 28 d, aliquots were taken and diluted in dilution medium (phosphate buffer, 0.07 molar pH 7.4 (+/−0.2), with 1% Tween 80+0.3% soya lecithin). The surviving germ counts were determined in the dilution stages 10^−1 to 10^−4. The reference point taken for determining the reduction in germ count was the respective initial value of the sample. The results were given as logarithmic reductions.
# C. albicans ATCC 10231 [4] = experiment: as above; conditions: 1% active substance
# Protocol: as §2
# A. niger ATCC 16404 [5] = experiment: Preservation stress test, example formulation 2 (roll-on deodorant formulation); conditions: 1% active substance
# Protocol: as §2
# C. albicans ATCC 10231 [6] = experiment: as above; conditions: 1% active substance
# Protocol: as §2
# E. coli ATCC 10536 = experiment: as above; conditions: 1% active substance
# Protocol: as §2
# P. aeruginosa ATCC 15442 = experiment: as above; conditions: 1% active substance
# Protocol: as §2
# S. aureus ATCC 6538 = experiment: as above; conditions: 1% active substance
# Protocol: as §2
# [7] = lower limit of MIC range, read-out: MIC value (ppm of diol), from
# [8] = upper limit of MIC range, read-out: MIC value (ppm of diol), to
# [9] = lower limit, read-out: Maximum MIC value (ppm of diol), from
# [10] = upper limit, read-out: Maximum MIC value (ppm of diol), to
structure (smiles),measurement,setting,value
"OCC1(CO)CCCC1 [DMCP, 1,1-dimethylolcyclopentane]",MIC,E. coli NCIMB 8545; [7],> 3.12 mg/mL
same,MIC,E. coli NCIMB 8545; [8],≤ 6.25 mg/mL
same,MIC,[1]; [7],> 12.5 mg/mL
same,MIC,[1]; [8],≤ 25 mg/mL
same,MIC,P. vulgaris NCIMB 4175; [7],> 12.5 mg/mL
same,MIC,P. vulgaris NCIMB 4175; [8],≤ 25 mg/mL
same,MIC,S. aureus NCIMB 9578; [7],> 3.12 mg/mL
same,MIC,S. aureus NCIMB 9578; [8],≤ 6.25 mg/mL
same,MIC,[2]; [9],> 50 mg/mL
same,MIC,[2]; [10],≤ 100 mg/mL
same,Microbicidal activity given as logarithmic reduction in germ count,A. niger ATCC 16404 [3]; 48 h,2 log. Red.
same,Microbicidal activity given as logarithmic reduction in germ count,A. niger ATCC 16404 [3]; 7 d,1 log. Red.
same,Microbicidal activity given as logarithmic reduction in germ count,A. niger ATCC 16404 [3]; 14 d,2 log. Red.
same,Microbicidal activity given as logarithmic reduction in germ count,A. niger ATCC 16404 [3]; 28 d,2 log. Red.
same,Microbicidal activity given as logarithmic reduction in germ count,C. albicans ATCC 10231 [4]; 48 h,≧3 log. Red.
same,Microbicidal activity given as logarithmic reduction in germ count,C. albicans ATCC 10231 [4]; 7 d,5 log. Red.
same,Microbicidal activity given as logarithmic reduction in germ count,C. albicans ATCC 10231 [4]; 14 d,5 log. Red.
same,Microbicidal activity given as logarithmic reduction in germ count,C. albicans ATCC 10231 [4]; 28 d,5 log. Red.
same,Microbicidal activity given as logarithmic reduction in germ count,A. niger ATCC 16404 [5]; 48 h,0 log. Red.
same,Microbicidal activity given as logarithmic reduction in germ count,A. niger ATCC 16404 [5]; 7 d,0 log. Red.
same,Microbicidal activity given as logarithmic reduction in germ count,A. niger ATCC 16404 [5]; 14 d,0 log. Red.
same,Microbicidal activity given as logarithmic reduction in germ count,C. albicans ATCC 10231 [6]; 48 h,0 log. Red.
same,Microbicidal activity given as logarithmic reduction in germ count,C. albicans ATCC 10231 [6]; 7 d,0 log. Red.
same,Microbicidal activity given as logarithmic reduction in germ count,C. albicans ATCC 10231 [6]; 14 d,0 log. Red.
same,Microbicidal activity given as logarithmic reduction in germ count,E. coli ATCC 10536; 48 h,1 log. Red.
same,Microbicidal activity given as logarithmic reduction in germ count,E. coli ATCC 10536; 7 d,3 log. Red.
same,Microbicidal activity given as logarithmic reduction in germ count,E. coli ATCC 10536; 14 d,5 log. Red.
same,Microbicidal activity given as logarithmic reduction in germ count,E. coli ATCC 10536; 28 d,5 log. Red.
same,Microbicidal activity given as logarithmic reduction in germ count,P. aeruginosa ATCC 15442; 48 h,1 log. Red.
same,Microbicidal activity given as logarithmic reduction in germ count,P. aeruginosa ATCC 15442; 7 d,≧3 log. Red.
same,Microbicidal activity given as logarithmic reduction in germ count,P. aeruginosa ATCC 15442; 14 d,5 log. Red.
same,Microbicidal activity given as logarithmic reduction in germ count,P. aeruginosa ATCC 15442; 28 d,5 log. Red.
same,Microbicidal activity given as logarithmic reduction in germ count,S. aureus ATCC 6538; 48 h,≧3 log. Red.
same,Microbicidal activity given as logarithmic reduction in germ count,S. aureus ATCC 6538; 7 d,5 log. Red.
same,Microbicidal activity given as logarithmic reduction in germ count,S. aureus ATCC 6538; 14 d,5 log. Red.
same,Microbicidal activity given as logarithmic reduction in germ count,S. aureus ATCC 6538; 28 d,5 log. Red.
"CC(C)C(C)(CO)CO [IMPD, 2-isopropyl-2-methylpropane-1,3-diol]",MIC,E. coli NCIMB 8545; [7],> 6.25 mg/mL
same,MIC,E. coli NCIMB 8545; [8],≤ 12.5 mg/mL
same,MIC,[1]; [7],> 12.5 mg/mL
same,MIC,[1]; [8],≤ 25 mg/mL
same,MIC,P. vulgaris NCIMB 4175; [7],> 6.25 mg/mL
same,MIC,P. vulgaris NCIMB 4175; [8],≤ 12.5 mg/mL
same,MIC,S. aureus NCIMB 9578; [7],> 12.5 mg/mL
same,MIC,S. aureus NCIMB 9578; [8],≤ 25 mg/mL
same,MIC,[2]; [9],> 25 mg/mL
same,MIC,[2]; [10],≤ 50 mg/mL
same,Microbicidal activity given as logarithmic reduction in germ count,A. niger ATCC 16404 [3]; 48 h,1 log. Red.
same,Microbicidal activity given as logarithmic reduction in germ count,A. niger ATCC 16404 [3]; 7 d,1 log. Red.
same,Microbicidal activity given as logarithmic reduction in germ count,A. niger ATCC 16404 [3]; 14 d,2 log. Red.
same,Microbicidal activity given as logarithmic reduction in germ count,A. niger ATCC 16404 [3]; 28 d,3 log. Red.
same,Microbicidal activity given as logarithmic reduction in germ count,C. albicans ATCC 10231 [4]; 48 h,1 log. Red.
same,Microbicidal activity given as logarithmic reduction in germ count,C. albicans ATCC 10231 [4]; 7 d,≧3 log. Red.
same,Microbicidal activity given as logarithmic reduction in germ count,C. albicans ATCC 10231 [4]; 14 d,5 log. Red.
same,Microbicidal activity given as logarithmic reduction in germ count,C. albicans ATCC 10231 [4]; 28 d,5 log. Red.
same,Microbicidal activity given as logarithmic reduction in germ count,A. niger ATCC 16404 [5]; 48 h,0 log. Red.
same,Microbicidal activity given as logarithmic reduction in germ count,A. niger ATCC 16404 [5]; 7 d,0 log. Red.
same,Microbicidal activity given as logarithmic reduction in germ count,A. niger ATCC 16404 [5]; 14 d,0 log. Red.
same,Microbicidal activity given as logarithmic reduction in germ count,C. albicans ATCC 10231 [6]; 48 h,0 log. Red.
same,Microbicidal activity given as logarithmic reduction in germ count,C. albicans ATCC 10231 [6]; 7 d,0 log. Red.
same,Microbicidal activity given as logarithmic reduction in germ count,C. albicans ATCC 10231 [6]; 14 d,0 log. Red.
same,Microbicidal activity given as logarithmic reduction in germ count,E. coli ATCC 10536; 48 h,3 log. Red.
same,Microbicidal activity given as logarithmic reduction in germ count,E. coli ATCC 10536; 7 d,5 log. Red.
same,Microbicidal activity given as logarithmic reduction in germ count,E. coli ATCC 10536; 14 d,5 log. Red.
same,Microbicidal activity given as logarithmic reduction in germ count,E. coli ATCC 10536; 28 d,5 log. Red.
same,Microbicidal activity given as logarithmic reduction in germ count,P. aeruginosa ATCC 15442; 48 h,1 log. Red.
same,Microbicidal activity given as logarithmic reduction in germ count,P. aeruginosa ATCC 15442; 7 d,≧3 log. Red.
same,Microbicidal activity given as logarithmic reduction in germ count,P. aeruginosa ATCC 15442; 14 d,5 log. Red.
same,Microbicidal activity given as logarithmic reduction in germ count,P. aeruginosa ATCC 15442; 28 d,5 log. Red.
same,Microbicidal activity given as logarithmic reduction in germ count,S. aureus ATCC 6538; 48 h,≧3 log. Red.
same,Microbicidal activity given as logarithmic reduction in germ count,S. aureus ATCC 6538; 7 d,5 log. Red.
same,Microbicidal activity given as logarithmic reduction in germ count,S. aureus ATCC 6538; 14 d,5 log. Red.
same,Microbicidal activity given as logarithmic reduction in germ count,S. aureus ATCC 6538; 28 d,5 log. Red.
